The source of these data is ChEMBL document CHEMBL3991601, “The target landscape of clinical kinase drugs” (Science, 2017).

Assay [1] concerns the target Adenylate kinase 2, mitochondrial (Homo sapiens, UniProt P54819).
Assay [2] has as its target Bone morphogenetic protein receptor type-1A (Homo sapiens, UniProt P36894).
The target in a further assay is T1, Glycine--tRNA ligase (Homo sapiens, UniProt P41250).
T1 sequence (P41250 whole entry): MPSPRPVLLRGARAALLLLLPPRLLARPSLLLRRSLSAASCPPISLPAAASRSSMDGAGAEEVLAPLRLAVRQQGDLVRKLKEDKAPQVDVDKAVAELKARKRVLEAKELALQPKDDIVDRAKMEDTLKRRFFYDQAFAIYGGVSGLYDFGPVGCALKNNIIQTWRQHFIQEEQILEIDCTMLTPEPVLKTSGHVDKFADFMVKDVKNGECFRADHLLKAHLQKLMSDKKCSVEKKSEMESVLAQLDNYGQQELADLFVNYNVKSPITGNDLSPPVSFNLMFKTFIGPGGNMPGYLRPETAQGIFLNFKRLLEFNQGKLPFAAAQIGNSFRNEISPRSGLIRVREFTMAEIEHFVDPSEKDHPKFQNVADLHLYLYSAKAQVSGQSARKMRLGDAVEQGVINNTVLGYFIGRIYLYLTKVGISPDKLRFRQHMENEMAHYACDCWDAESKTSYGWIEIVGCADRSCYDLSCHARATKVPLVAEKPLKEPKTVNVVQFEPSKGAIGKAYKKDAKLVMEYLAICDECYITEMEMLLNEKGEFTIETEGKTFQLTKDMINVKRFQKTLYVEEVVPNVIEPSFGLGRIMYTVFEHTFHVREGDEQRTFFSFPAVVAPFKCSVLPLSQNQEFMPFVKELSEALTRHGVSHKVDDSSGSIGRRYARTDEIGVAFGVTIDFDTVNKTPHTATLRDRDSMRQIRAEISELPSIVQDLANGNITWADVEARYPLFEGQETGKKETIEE

In assay [3] the target is T2, Interleukin-1 receptor-associated kinase 4 (Homo sapiens, UniProt Q9NWZ3).
T2 sequence (Q9NWZ3 whole entry): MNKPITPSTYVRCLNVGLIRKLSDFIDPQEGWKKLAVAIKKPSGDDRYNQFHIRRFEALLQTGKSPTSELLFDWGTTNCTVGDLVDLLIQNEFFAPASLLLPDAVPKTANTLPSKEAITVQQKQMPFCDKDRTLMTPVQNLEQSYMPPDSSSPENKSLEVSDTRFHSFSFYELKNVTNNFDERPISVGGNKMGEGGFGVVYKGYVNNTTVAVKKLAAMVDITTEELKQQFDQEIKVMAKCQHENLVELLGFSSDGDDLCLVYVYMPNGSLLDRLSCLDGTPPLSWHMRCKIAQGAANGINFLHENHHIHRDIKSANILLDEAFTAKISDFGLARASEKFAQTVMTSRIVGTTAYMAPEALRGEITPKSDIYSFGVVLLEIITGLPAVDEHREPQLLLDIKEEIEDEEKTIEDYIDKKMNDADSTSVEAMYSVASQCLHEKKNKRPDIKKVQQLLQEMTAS

The target in assay [4] is T3, Mitogen-activated protein kinase kinase kinase kinase 2 (Homo sapiens, UniProt Q12851).
T3 sequence (Q12851 whole entry): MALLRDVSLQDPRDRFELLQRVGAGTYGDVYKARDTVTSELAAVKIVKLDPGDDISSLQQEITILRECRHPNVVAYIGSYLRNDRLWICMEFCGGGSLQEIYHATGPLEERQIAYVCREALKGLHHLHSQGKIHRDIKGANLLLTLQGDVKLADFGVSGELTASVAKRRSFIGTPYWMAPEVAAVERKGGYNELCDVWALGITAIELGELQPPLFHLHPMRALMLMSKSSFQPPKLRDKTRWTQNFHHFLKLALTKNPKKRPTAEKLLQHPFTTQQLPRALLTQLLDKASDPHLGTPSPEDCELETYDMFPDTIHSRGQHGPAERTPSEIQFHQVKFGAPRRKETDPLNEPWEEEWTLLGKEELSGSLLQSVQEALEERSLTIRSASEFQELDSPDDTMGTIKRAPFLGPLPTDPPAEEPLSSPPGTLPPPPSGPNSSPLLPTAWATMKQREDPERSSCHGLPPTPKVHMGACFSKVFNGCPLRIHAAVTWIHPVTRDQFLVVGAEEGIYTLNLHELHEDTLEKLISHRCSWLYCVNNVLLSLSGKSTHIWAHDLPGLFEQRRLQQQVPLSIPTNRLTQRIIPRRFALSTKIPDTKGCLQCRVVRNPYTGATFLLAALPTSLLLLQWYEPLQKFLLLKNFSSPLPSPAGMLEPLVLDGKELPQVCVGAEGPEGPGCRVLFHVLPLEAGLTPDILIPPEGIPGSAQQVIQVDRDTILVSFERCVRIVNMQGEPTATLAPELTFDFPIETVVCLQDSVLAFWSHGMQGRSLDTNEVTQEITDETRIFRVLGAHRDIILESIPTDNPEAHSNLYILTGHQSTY

Assay [5] deals with STE20-like serine/threonine-protein kinase (Homo sapiens, UniProt Q9H2G2).
In the next assay the target is T4, TGF-beta receptor type-1 (Homo sapiens, UniProt P36897).
T4 sequence (P36897 whole entry): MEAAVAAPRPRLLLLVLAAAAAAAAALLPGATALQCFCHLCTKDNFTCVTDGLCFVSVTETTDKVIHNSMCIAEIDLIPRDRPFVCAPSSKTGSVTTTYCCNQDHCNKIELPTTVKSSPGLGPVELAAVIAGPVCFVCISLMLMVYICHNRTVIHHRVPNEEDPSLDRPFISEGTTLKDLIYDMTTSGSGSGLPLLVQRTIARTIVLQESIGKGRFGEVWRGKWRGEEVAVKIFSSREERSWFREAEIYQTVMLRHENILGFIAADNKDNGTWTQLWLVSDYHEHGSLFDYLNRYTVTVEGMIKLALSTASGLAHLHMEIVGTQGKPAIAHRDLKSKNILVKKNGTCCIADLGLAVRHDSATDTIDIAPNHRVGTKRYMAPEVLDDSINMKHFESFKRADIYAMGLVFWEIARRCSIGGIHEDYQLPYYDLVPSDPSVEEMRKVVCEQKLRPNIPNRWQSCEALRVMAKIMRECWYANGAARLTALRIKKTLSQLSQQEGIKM

Each structure is given as a SMILES string. The source made the active and inactive calls. For most assays here, no stated cut-off is given here; in the data, actives have a measured Kd and inactives only a lower limit. Where only a bound is given, the exact number is not on record here.

Bone morphogenetic protein receptor type-1A, sequence (P36894 whole entry): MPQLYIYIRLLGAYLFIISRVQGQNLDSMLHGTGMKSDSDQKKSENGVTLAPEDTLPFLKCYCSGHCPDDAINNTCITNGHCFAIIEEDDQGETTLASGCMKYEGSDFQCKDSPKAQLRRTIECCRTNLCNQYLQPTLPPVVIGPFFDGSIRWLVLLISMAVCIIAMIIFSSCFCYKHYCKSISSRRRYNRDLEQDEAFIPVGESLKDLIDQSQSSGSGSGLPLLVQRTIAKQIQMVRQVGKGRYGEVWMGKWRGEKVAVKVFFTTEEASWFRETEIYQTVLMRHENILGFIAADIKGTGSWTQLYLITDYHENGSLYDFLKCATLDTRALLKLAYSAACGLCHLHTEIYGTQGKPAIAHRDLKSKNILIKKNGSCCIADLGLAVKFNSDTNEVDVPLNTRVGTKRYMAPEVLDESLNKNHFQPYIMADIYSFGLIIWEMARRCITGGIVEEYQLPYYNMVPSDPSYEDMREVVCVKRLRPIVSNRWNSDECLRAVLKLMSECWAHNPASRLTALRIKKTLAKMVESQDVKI
STE20-like serine/threonine-protein kinase, sequence (Q9H2G2 whole entry): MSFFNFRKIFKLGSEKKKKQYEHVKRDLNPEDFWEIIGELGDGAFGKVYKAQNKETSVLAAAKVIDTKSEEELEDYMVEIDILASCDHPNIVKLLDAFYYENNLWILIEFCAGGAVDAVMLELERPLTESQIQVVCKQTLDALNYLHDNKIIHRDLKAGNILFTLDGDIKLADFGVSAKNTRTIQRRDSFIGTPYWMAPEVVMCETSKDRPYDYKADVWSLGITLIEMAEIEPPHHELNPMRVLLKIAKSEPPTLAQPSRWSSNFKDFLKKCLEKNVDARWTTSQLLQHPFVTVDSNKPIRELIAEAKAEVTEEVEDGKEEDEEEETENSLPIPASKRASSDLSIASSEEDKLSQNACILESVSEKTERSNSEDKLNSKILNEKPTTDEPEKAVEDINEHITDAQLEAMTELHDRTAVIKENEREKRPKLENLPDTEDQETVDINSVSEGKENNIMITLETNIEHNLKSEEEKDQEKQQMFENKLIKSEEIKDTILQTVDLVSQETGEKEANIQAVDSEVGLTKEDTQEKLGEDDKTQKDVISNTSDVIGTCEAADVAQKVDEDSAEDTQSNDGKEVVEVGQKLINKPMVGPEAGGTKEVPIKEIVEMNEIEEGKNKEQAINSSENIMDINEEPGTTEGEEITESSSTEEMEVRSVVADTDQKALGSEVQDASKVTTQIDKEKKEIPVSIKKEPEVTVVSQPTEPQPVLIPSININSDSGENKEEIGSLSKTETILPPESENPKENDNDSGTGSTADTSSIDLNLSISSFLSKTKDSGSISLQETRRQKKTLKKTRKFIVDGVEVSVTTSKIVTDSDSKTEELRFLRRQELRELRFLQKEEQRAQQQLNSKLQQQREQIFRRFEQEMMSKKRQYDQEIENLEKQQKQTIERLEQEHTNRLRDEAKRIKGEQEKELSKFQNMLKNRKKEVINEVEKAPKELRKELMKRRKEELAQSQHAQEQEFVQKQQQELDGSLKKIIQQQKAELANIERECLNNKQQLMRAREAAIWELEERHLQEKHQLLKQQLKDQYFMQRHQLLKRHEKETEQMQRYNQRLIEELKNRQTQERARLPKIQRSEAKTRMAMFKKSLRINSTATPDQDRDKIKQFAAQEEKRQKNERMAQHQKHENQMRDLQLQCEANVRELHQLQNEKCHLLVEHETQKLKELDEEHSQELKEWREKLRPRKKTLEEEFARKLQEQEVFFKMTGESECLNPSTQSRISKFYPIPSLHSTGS

Regarding `N[C@@H]1CCCN(c2c(/C=C3\SC(=O)NC3=O)cccc2-c2ccccc2)C1`, the Kd (in assay [1]; in assay [2]; at Glycine--tRNA ligase; in assay [3]; in assay [4]; in assay [5]) was > 30 µM (inactive) in each case. On TGF-beta receptor type-1, the Kd (in general, a measure of binding affinity in units of concentration) was > 30 µM (inactive).

Regarding `O=C(O)[C@]1(Cc2cccc(Nc3nccs3)n2)CC[C@@H](Oc2cccc(Cl)c2F)CC1` [MK-5108], the Kd is > 30 µM (inactive) in assay [1]; > 30 µM (inactive) in assay [2]; > 30 µM (inactive) at Glycine--tRNA ligase; > 30 µM (inactive) in assay [3]; 1.85 µM (active) in assay [4]; > 30 µM (inactive) in assay [5]. The Kd on TGF-beta receptor type-1 is 1.7 µM (active).

With `COc1cc(OC)c(/C=C/S(=O)(=O)Cc2ccc(OC)c(NCC(=O)O)c2)c(OC)c1` [RIGOSERTIB], the Kd (in assay [1]; in assay [2]; at Glycine--tRNA ligase; in assay [3]; in assay [4]; in assay [5]) was > 30 µM (inactive) in each case. Besides, the Kd on TGF-beta receptor type-1 is > 30 µM (inactive).

As for `CC[C@@H]1C(=O)N(C)c2cnc(Nc3ccc(C(=O)N[C@H]4CC[C@H](N5CCN(CC6CC6)CC5)CC4)cc3OC)nc2N1C(C)C` [VOLASERTIB], the Kd (in assay [1]; in assay [2]; at Glycine--tRNA ligase; in assay [3]; in assay [4]; in assay [5]) was > 30 µM (inactive) in each case. In addition, the Kd at TGF-beta receptor type-1 was > 30 µM (inactive).

`Cc1cc(-c2cc(O)ccc2Cl)cc2nnc(Nc3ccc(OCCN4CCCC4)cc3)nc12`: the Kd (in assay [1]; in assay [2]; on Glycine--tRNA ligase; in assay [3]; in assay [4]; in assay [5]) was > 30 µM (inactive) each time. Further, the Kd at TGF-beta receptor type-1 is 0.002 µM (active).

On to `CCn1c(=O)c(-c2cc[nH]n2)cc2c(C)nc(N)nc21` [VOXTALISIB], for which the Kd (in assay [1]; in assay [2]; on Glycine--tRNA ligase; in assay [3]; in assay [4]; in assay [5]) was > 30 µM (inactive) each time. In addition, at TGF-beta receptor type-1, the Kd is > 30 µM (inactive).

Take `Cn1ncc(Cl)c1-c1cc(C(=O)N[C@H](CN)Cc2cccc(F)c2)sc1Cl` [AFURESERTIB]: the Kd (in assay [1]; in assay [2]; on Glycine--tRNA ligase; in assay [3]; in assay [4]; in assay [5]) was > 30 µM (inactive) in each case. For the same compound, the Kd at TGF-beta receptor type-1 was > 30 µM (inactive).

Regarding `Cc1cc2c(F)c(Oc3ncnn4cc(OC[C@@H](C)OC(=O)[C@H](C)N)c(C)c34)ccc2[nH]1` [BRIVANIB ALANINATE], the Kd in assay [1] is > 30 µM (inactive); in assay [2], > 30 µM (inactive); at Glycine--tRNA ligase, > 30 µM (inactive); in assay [3], > 30 µM (inactive); in assay [4], > 30 µM (inactive); in assay [5] it was 9.49 µM (active). Moreover, at TGF-beta receptor type-1, the Kd was > 30 µM (inactive).

`CN1CCC(CNc2ccc3ncc(-c4cccc(OC(F)(F)F)c4)n3n2)CC1` [SGI-1776]: the Kd is > 30 µM (inactive) in assay [1]; > 30 µM (inactive) in assay [2]; > 30 µM (inactive) on Glycine--tRNA ligase; > 30 µM (inactive) in assay [3]; > 30 µM (inactive) in assay [4]; 3.59 µM (active) in assay [5]. The Kd at TGF-beta receptor type-1 was > 30 µM (inactive).

Take `CC[C@H](Nc1ncnc2[nH]cnc12)c1nc2cccc(F)c2c(=O)n1-c1ccccc1` [IDELALISIB]: the Kd (in assay [1]; in assay [2]; at Glycine--tRNA ligase; in assay [3]; in assay [4]; in assay [5]) was > 30 µM (inactive) each time. Also, the Kd at TGF-beta receptor type-1 was > 30 µM (inactive).

As to `COC(=O)N[C@@H](C)CNc1nccc(-c2cn(C(C)C)nc2-c2cc(Cl)cc(NS(C)(=O)=O)c2F)n1` [ENCORAFENIB], the Kd (in assay [1]; in assay [2]; on Glycine--tRNA ligase; in assay [3]; in assay [4]; in assay [5]) was > 30 µM (inactive) throughout. On TGF-beta receptor type-1, the Kd was > 30 µM (inactive).

As for `O=c1sn(-c2cccc3ccccc23)c(=O)n1Cc1ccccc1` [TIDEGLUSIB], the Kd (in assay [1]; in assay [2]; at Glycine--tRNA ligase; in assay [3]; in assay [4]; in assay [5]) was > 30 µM (inactive) each time. For the same compound, the Kd at TGF-beta receptor type-1 was > 30 µM (inactive).

As to `COC(=O)[C@@]1(O)C[C@H]2O[C@]1(C)n1c3ccccc3c3c4c(c5c6ccccc6n2c5c31)C(=O)NC4` [K-252A], the Kd in assay [1] was > 30 µM (inactive); in assay [2], > 30 µM (inactive); at Glycine--tRNA ligase it was > 30 µM (inactive); in assay [3], 0.009 µM (active); in assay [4] it was 0.131 µM (active); in assay [5], 3.3 µM (active). Also, the Kd at TGF-beta receptor type-1 is 2.18 µM (active).

As for `O=C(c1ccc(F)c(F)c1Nc1ccc(I)cc1F)N1CC(O)([C@@H]2CCCCN2)C1` [COBIMETINIB], the Kd (in assay [1]; in assay [2]; at Glycine--tRNA ligase; in assay [3]; in assay [4]; in assay [5]) was > 30 µM (inactive) in each case. Further, on TGF-beta receptor type-1, the Kd is > 30 µM (inactive).
